Data taken from PubChem BioAssay AID256 (DTP/NCI, 2004).
Where “and” joins values, the source holds several entries; their conditions need not be identical. Equal entries are not always repeated. Inconclusive results and toxic doses are left out. The calls were made as follows: active = survival T/C of 150% or more; inactive = T/C below 125% in these data.

System: CD2F1 mice, L1210 leukemia ip, survival T/C
Assay: NCI In Vivo Anticancer Drug Screen. Data for tumor model L1210 Leukemia (intraperitoneal) in CD2F1 (CDF1) mice
Conditions: higher = longer survival
Method in brief: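 Ratio T/C, where T is the treated-group value and C the vehicle-dosed control value, from mice implanted with a transplantable tumor.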

[1] = endpoint: mean survival time, dose: 50.0 mg/kg/injection, schedule: Q01DX009 (ip), vehicle: saline with Tween-80
[2] = endpoint: mean survival time, dose: 100.0 mg/kg/injection, schedule: Q04DX003 (ip), vehicle: saline with Tween-80
[3] = endpoint: mean survival time, dose: 200.0 mg/kg/injection, schedule: Q04DX003 (ip), vehicle: saline with Tween-80
[4] = endpoint: mean survival time, dose: 400.0 mg/kg/injection, schedule: Q04DX003 (ip), vehicle: saline with Tween-80
[5] = endpoint: mean survival time, dose: 100.0 mg/kg/injection, schedule: Q04DX002 (ip), vehicle: Klucel (hydroxypropylcellulose) (HPC)
[6] = endpoint: mean survival time, dose: 200.0 mg/kg/injection, schedule: Q04DX002 (ip), vehicle: Klucel (hydroxypropylcellulose) (HPC)
[7] = endpoint: mean survival time, dose: 400.0 mg/kg/injection, schedule: Q04DX002 (ip), vehicle: Klucel (hydroxypropylcellulose) (HPC)
[8] = endpoint: mean survival time, dose: 100.0 mg/kg/injection, schedule: Q01DX001 (ip), vehicle: saline with Tween-80
[9] = endpoint: mean survival time, dose: 200.0 mg/kg/injection, schedule: Q01DX001 (ip), vehicle: saline with Tween-80
[10] = endpoint: mean survival time, dose: 400.0 mg/kg/injection, schedule: Q01DX001 (ip), vehicle: saline with Tween-80
[11] = endpoint: mean survival time, dose: 100.0 mg/kg/injection, schedule: Q01DX009 (ip), vehicle: saline with Tween-80
[12] = endpoint: mean survival time, dose: 200.0 mg/kg/injection, schedule: Q01DX009 (ip), vehicle: saline with Tween-80
[13] = endpoint: mean survival time, dose: 100.0 mg/kg/injection, schedule: Q04DX003 (ip), vehicle: saline
[14] = endpoint: mean survival time, dose: 200.0 mg/kg/injection, schedule: Q01DX009 (ip), vehicle: saline
[15] = endpoint: mean survival time, dose: 200.0 mg/kg/injection, schedule: Q04DX003 (ip), vehicle: saline
[16] = endpoint: mean survival time, dose: 400.0 mg/kg/injection, schedule: Q04DX003 (ip), vehicle: saline
[17] = endpoint: mean survival time, dose: 6.25 mg/kg/injection, schedule: Q04DX003 (ip), vehicle: saline with Tween-80
[18] = endpoint: mean survival time, dose: 100.0 mg/kg/injection, schedule: Q01DX001 (ip), vehicle: saline
[19] = endpoint: mean survival time, dose: 200.0 mg/kg/injection, schedule: Q01DX001 (ip), vehicle: saline
[20] = endpoint: mean survival time, dose: 400.0 mg/kg/injection, schedule: Q01DX001 (ip), vehicle: saline
[21] = endpoint: mean survival time, dose: 6.25 mg/kg/injection, schedule: Q01DX009 (ip), vehicle: saline
[22] = endpoint: mean survival time, dose: 12.5 mg/kg/injection, schedule: Q01DX009 (ip), vehicle: saline
[23] = endpoint: mean survival time, dose: 25.0 mg/kg/injection, schedule: Q01DX009 (ip), vehicle: saline

Measured: T/C

O=S1(=O)Cc2c(Br)c(Br)c(Br)c(Br)c2C1
inactive: endpoint: mean survival time, dose: 12.5 mg/kg/injection, schedule: Q01DX009 (ip), vehicle: saline with Tween-80 90 % of control | endpoint: mean survival time, dose: 25.0 mg/kg/injection, schedule: Q01DX009 (ip), vehicle: saline with Tween-80 88 % of control | [1] 86 % of control | [2] 101 % of control | [3] 110 % of control | [4] 96 % of control

CC(C)N1CCC1C(=O)O (stereo not drawn)
inactive: endpoint: mean survival time, dose: 100.0 mg/kg/injection, schedule: Q01DX009 (ip), vehicle: saline sonified 97 % of control | endpoint: mean survival time, dose: 200.0 mg/kg/injection, schedule: Q01DX009 (ip), vehicle: saline sonified 105 % of control | endpoint: mean survival time, dose: 400.0 mg/kg/injection, schedule: Q01DX009 (ip), vehicle: saline sonified 97 % of control

CC1CCCN(N=Nc2ccccc2-c2nc(N)c3ccccc3n2)C1 (stereo not drawn)
inactive: [5] 88 % of control | [6] 92 % of control | [7] 95 % of control

CN(C)S(=O)(=O)/C=C(\Cl)c1ccccc1
inactive: [8] 97 % of control | [9] 100 % of control | [10] 104 % of control

CSc1ccccc1C1=CCCCCC1
inactive: [1] 103 % of control | [8] 96 % of control | [11] 93 % of control | [9] 94 % of control | [12] 94 % of control

Cc1ccc(NC(=S)NC(=O)/C=C/c2ccccc2)cc1Cl
inactive: endpoint: mean survival time, dose: 50.0 mg/kg/injection, schedule: Q04DX002 (ip), vehicle: saline with Tween-80 95 % of control and 97 % of control | endpoint: mean survival time, dose: 100.0 mg/kg/injection, schedule: Q04DX002 (ip), vehicle: saline with Tween-80 91 % of control and 97 % of control | endpoint: mean survival time, dose: 200.0 mg/kg/injection, schedule: Q04DX002 (ip), vehicle: saline with Tween-80 93 % of control and 94 % of control

Cc1nc2c(=O)n(C3OC(CO)C(O)C3O)cnc2o1 (stereo not drawn)
inactive: endpoint: mean survival time, dose: 100.0 mg/kg/injection, schedule: Q01DX005 (ip), vehicle: saline 103 % of control

NSc1ccc([N+](=O)[O-])cc1
active: endpoint: mean survival time, dose: 25.0 mg/kg/injection, schedule: Q01DX001 (ip), vehicle: other 270 % of control | endpoint: mean survival time, dose: 50.0 mg/kg/injection, schedule: Q01DX001 (ip), vehicle: other 204 % of control

O=C(O)c1ccccc1C(=O)c1ccccc1
inactive: endpoint: mean survival time, dose: 100.0 mg/kg/injection, schedule: Q01DX009 (ip), vehicle: saline 97 % of control | [13] 90 % of control | [14] 101 % of control | [15] 95 % of control | endpoint: mean survival time, dose: 400.0 mg/kg/injection, schedule: Q01DX009 (ip), vehicle: saline 101 % of control | [16] 103 % of control

NCc1ccc(OCc2nc(N)nc(N)c2-c2ccc(Cl)c(Cl)c2)cc1
inactive: [8] 92 % of control | [9] 91 % of control

Cc1cc(O)c2c(c1O)C(=O)C13C(=C2O)C(=O)C2C(O)C1C1C(O)C3C(=O)C3=C(O)c4c(O)cc(C)c(O)c4C(=O)C321 (stereo not drawn)
inactive: [17] 102 % of control | endpoint: mean survival time, dose: 12.5 mg/kg/injection, schedule: Q04DX003 (ip), vehicle: saline with Tween-80 107 % of control | endpoint: mean survival time, dose: 25.0 mg/kg/injection, schedule: Q04DX003 (ip), vehicle: saline with Tween-80 93 % of control | endpoint: median survival time, dose: 0.78 mg/kg/injection, schedule: Q01DX009 (ip), vehicle: saline with Tween-80 111 % of control | endpoint: median survival time, dose: 1.56 mg/kg/injection, schedule: Q01DX009 (ip), vehicle: saline with Tween-80 109 % of control | endpoint: median survival time, dose: 3.12 mg/kg/injection, schedule: Q01DX009 (ip), vehicle: saline with Tween-80 97 % of control and 102 % of control

COc1cc(NCc2ccccc2O)c2ncccc2c1
inactive: endpoint: mean survival time, dose: 50.0 mg/kg/injection, schedule: Q04DX003 (ip), vehicle: saline with Tween-80 91 % of control | [2] 91 % of control | [3] 91 % of control

CCC1(C)CC(=O)NC(=O)C1
inactive: endpoint: mean survival time, dose: 2.5 mg/kg/injection, schedule: Q01DX009 (ip), vehicle: saline with Tween-80 97 % of control | endpoint: mean survival time, dose: 5.0 mg/kg/injection, schedule: Q01DX009 (ip), vehicle: saline with Tween-80 100 % of control | endpoint: mean survival time, dose: 10.0 mg/kg/injection, schedule: Q01DX009 (ip), vehicle: saline with Tween-80 94 % of control

ClC/C(=N\N1CCCCCC1)c1ccccc1
inactive: [18] 103 % of control | [19] 103 % of control | [20] 102 % of control

O=C1CCCc2ccc(Cl)cc21
inactive: [13] 96 % of control | [15] 97 % of control | [16] 108 % of control

CC1=C2CC3CCC(C)C2(CC1)C3(C)C (stereo not drawn)
inactive: [5] 111 % of control | [13] 96 % of control | [6] 96 % of control | [15] 98 % of control | [7] 96 % of control | [16] 106 % of control

COc1cc(NCC(C)(O)CN2CCCC(C)C2C)c2ncccc2c1 (stereo not drawn)
inactive: endpoint: mean survival time, dose: 3.12 mg/kg/injection, schedule: Q01DX009 (ip), vehicle: saline 101 % of control | [21] 101 % of control | [22] 101 % of control | [23] 103 % of control | endpoint: mean survival time, dose: 50.0 mg/kg/injection, schedule: Q01DX009 (ip), vehicle: saline 102 % of control

CN(N=O)C(=O)NC1C(CO)OC2OC(C)(C)OC21 (stereo not drawn)
inactive: endpoint: mean survival time, dose: 100.0 mg/kg/injection, schedule: Q04DX003 (ip), vehicle: saline sonified 94 % of control | endpoint: mean survival time, dose: 200.0 mg/kg/injection, schedule: Q04DX003 (ip), vehicle: saline sonified 100 % of control | endpoint: mean survival time, dose: 300.0 mg/kg/injection, schedule: Q01DX009 (ip), vehicle: saline 105 % of control | endpoint: mean survival time, dose: 400.0 mg/kg/injection, schedule: Q04DX003 (ip), vehicle: saline sonified 107 % of control
active: endpoint: mean survival time, dose: 132.0 mg/kg/injection, schedule: Q01DX009 (ip), vehicle: saline 151 % of control | [14] 198 % of control

C1CCN(NC2=NCCO2)CC1
inactive: [21] 101 % of control | [22] 98 % of control | [23] 98 % of control

CCCOC(=O)c1cncn1C(C)c1ccccc1 (stereo not drawn)
inactive: [18] 102 % of control

O=C([O-])CC(=O)[O-].[NH-][C@@H]1CCCC[C@H]1[NH-].[Pt+4]
inactive: [17] 113 % of control

COc1ccc(C=NC2CC(C)CCC2C)c(OC)c1 (stereo not drawn)
inactive: [11] 86 % of control | [2] 91 % of control | [12] 89 % of control | [3] 95 % of control | endpoint: mean survival time, dose: 400.0 mg/kg/injection, schedule: Q01DX009 (ip), vehicle: saline with Tween-80 93 % of control | [4] 95 % of control

COC(=O)c1ccccc1NCC(O)C(O)C(O)CO (stereo not drawn)
inactive: [18] 98 % of control | [19] 101 % of control | [20] 86 % of control

Cc1ccc(CNc2cc(C)ccn2)cc1
inactive: [2] 100 % of control | [3] 91 % of control

COC(=O)C1CN1C1=C(C)C(=O)C2=C(C1=O)C(COC(N)=O)C1(OC)C3NC3CN21 (stereo not drawn)
inactive: endpoint: median survival time, dose: 1.5 mg/kg/injection, schedule: Q01DX001 (ip), vehicle: water 104 % of control | endpoint: median survival time, dose: 3.0 mg/kg/injection, schedule: Q01DX001 (ip), vehicle: water 103 % of control | endpoint: median survival time, dose: 6.0 mg/kg/injection, schedule: Q01DX001 (ip), vehicle: water 123 % of control | endpoint: median survival time, dose: 12.0 mg/kg/injection, schedule: Q01DX001 (ip), vehicle: water 123 % of control | endpoint: median survival time, dose: 24.0 mg/kg/injection, schedule: Q01DX001 (ip), vehicle: water 121 % of control and 124 % of control

O=[N+]([O-])c1ccccc1NCCO
inactive: [8] 101 % of control | [9] 98 % of control | [10] 102 % of control

COc1ccc(CC(=O)Nc2ccc(OC)c(OC)c2)cc1OC
inactive: endpoint: mean survival time, dose: 12.5 mg/kg/injection, schedule: Q01DX009 (ip), vehicle: water 96 % of control | endpoint: mean survival time, dose: 25.0 mg/kg/injection, schedule: Q01DX009 (ip), vehicle: water 98 % of control | endpoint: mean survival time, dose: 50.0 mg/kg/injection, schedule: Q01DX009 (ip), vehicle: water 96 % of control | endpoint: mean survival time, dose: 100.0 mg/kg/injection, schedule: Q01DX009 (ip), vehicle: water 95 % of control | endpoint: mean survival time, dose: 200.0 mg/kg/injection, schedule: Q01DX009 (ip), vehicle: water 96 % of control
